Assay results from US20080050720A1 (priority 2003, published 2008).

How the values were obtained:
[1] = tested on: lawn of the YMR325W reporter strain (S. Cerevisiae strain ABY12); assay: Solid plate halo assay, growth of reporter strain lawn; assay type: cell-based; conditions: paper disc; 20 ul of 50 ug/ml Miconazole or 20 ul of 1500 ug/ml Lovastatin; 30° C.
Procedure: (§1) The assay was designed to mimic assays of natural product producing strains in the presence of ABY12 reporter carrying strains.
(§2) 1. A YMR325W reporter was transformed into wild-type S. Cerevisiae strain ABY12 and grown on a solid Casamino Acids media plate.
(§3) 2. A culture from the solid media plate was used to inoculate a 50 ml liquid culture in Casamino Acids media. The liquid culture was grown overnight at 30° C. to a final OD600=8, and then diluted in Casamino Acids media to an OD600=1, or about 1×10^7 cells per milliliter. Five-hundred microliters of cell culture (about 5×10^6 cells) was spread evenly over the surface of each of two 100 mm solid agar-Casamino-acids-media plates to form a lawn of the YMR325W reporter strain on each plate.
3. Two 6 mm diameter blank paper discs (Becton Dickinson #231039), evenly spaced apart, were placed on top of the agar surface of each plate. On one plate 20 ul of 50 ug/ml of the sterol biosynthesis inhibitor Miconazole was spotted onto one of the two paper discs and 20 ul of 10% DMSO was spotted on the other paper disc as a control. On the other plate 20 ul of 1500 ug/ml Lovastatin was spotted onto one of the two paper discs and 20 ul of 10% DMSO was spotted on the other paper disc as a control. […]
(§4) 4. After a 72 hour incubation the assay plates were imaged in a Molecular Dynamics Fluorimager SI to measure the fluorescence from the GFP reporters.

[2] = tested on: YMR325W reporter; assay: Solid plate halo assay, fluorescence from the GFP reporter; assay type: cell-based, S. cerevisiae; conditions: for induction of YMR325W reporter (zone of high fluorescence at the edge of halo): paper disc, 20 ul of 50 ug/ml Miconazole or 20 ul of 1500 ug/ml Lovastatin, 30° C.
Procedure: as §1, §2, §3
3. Two 6 mm diameter blank paper discs (Becton Dickinson #231039), evenly spaced apart, were placed on top of the agar surface of each plate. On one plate 20 ul of 50 ug/ml of the sterol biosynthesis inhibitor Miconazole was spotted onto one of the two paper discs and 20 ul of 10% DMSO was spotted on the other paper disc as a control. On the other plate 20 ul of 1500 ug/ml Lovastatin was spotted onto one of the two paper discs and 20 ul of 10% DMSO was spotted on the other paper disc as a control. The plates were incubated at 30° C. overnight.
as §4

[3] = tested on: YMR325W gene reporter; assay: 96-well liquid high-throughput like assay with YMR325W-GFP reporter strain; assay type: cell-based, S. cerevisiae; conditions: serial 1 to 2 dilutions; initial Lovastatin 30 ug/ml, Miconazole 25 ug/ml, Fenpropimorph 50 ug/ml, Tunicamycin 25 ug/ml; 30° C., about 24 hours
Procedure: 1. A YMR325W gene reporter was transformed into wild-type S. Cerevisiae strain ABY12 and grown on solid Casamino Acids media plates.
2. A culture from the solid media plate was used to inoculate a 50 ml liquid culture in Casamino Acids media. The liquid culture was grown overnight at 30° C. to an OD600=8, and then was diluted in Casamino Acids media to an OD600=1.
3. Drug-like agents Lovastatin, Miconazole, and Fenpropimorph, sterol biosynthesis inhibitors that target different molecular steps in the sterol biosynthesis pathway, and UDP-N-acetyl-glucosamine-1-P transferase (GPT) inhibitor Tunicamycin, a negative control, were used in the assay. Each of the four drugs was added to individual wells (one drug per well) in the second column of a 96-well assay plate and serially diluted (1 to 2) into Casamino Acids media plus 2% DMSO in columns 3-12. The initial concentrations of the drugs were as follows: Lovastatin: 30 ug/ml, Miconazole: 25 ug/ml, Fenpropimorph: 50 ug/ml, and Tunicamycin: 25 ug/ml. The first column of the plate was used as a “no drug” control, containing only Casamino Acids media plus 2% DMSO. Each well contained a final volume of 100 ul of media and/or media plus drug.
4. […]
5. After the 24 hour incubation the 96-well assay plate was imaged in a Molecular Dynamics Fluorimager SI to measure the fluorescence from the YMR325W-GFP reporter.

Compound: Clc1ccc(COC(Cn2ccnc2)c2ccc(Cl)cc2Cl)c(Cl)c1 (stereo not drawn) [Miconazole]
- growth inhibition of the lawn (halo of no growth) [1]: inhibited the growth
- induction of YMR325W reporter (zone of high fluorescence at the edge of halo) [2]: significantly induced

Compound: CC[C@H](C)C(=O)O[C@H]1C[C@@H](C)C=C2C=C[C@H](C)[C@H](CC[C@@H]3C[C@@H](O)CC(=O)O3)[C@H]21 [Lovastatin]
- growth inhibition of the lawn (halo of no growth) [1]: inhibited the growth
- size of zone of fluorescence, Lovastatin compared with Miconazole ([2]; 20 ul of 1500 ug/ml Lovastatin versus 20 ul of 50 ug/ml Miconazole): much larger zone of fluorescence
- induction of YMR325W reporter (zone of high fluorescence at the edge of halo) [2]: significantly induced

Compound: Tunicamycin
- fluorescence from the YMR325W-GFP reporter [3]: No increase in fluorescence
